In ChEMBL document CHEMBL2385065, “Antiproliferative homoscalarane sesterterpenes from two Madagascan sponges” (Bioorg Med Chem, 2013) one finds IC50 data, which are given here for six compounds.

Assay type in all cases: functional, cell-based
Experiment [1] can be described thus: Cytotoxicity against human H522-T1 cells after 96 hrs by CellTire-Glo luminescent assay. Particulars: H522-T1, 96 h.
For another experiment, the system named is A2780. Description: Cytotoxicity against human A2780 cells after 2 days by alamar Blue assay. The note with it: A2780, 48 h. Background: Resazurin is reduced to fluorescent resorufin, in cell work by metabolically active cells.
The test system of another experiment is A2058. The experiment is described as follows: Cytotoxicity against human A2058 cells after 96 hrs by CellTire-Glo luminescent assay. Particulars: A2058, 96 h.

The structures appear in SMILES notation. Where only a bound is given, the exact number is not on record here.

Usually IC50 stands for the point on the concentration scale where inhibition reaches its midpoint. A high value points to weaker potency in that assay. As to `CC1(O)OC(=O)C2=C1CC[C@H]1[C@]3(C)CC[C@H]4C(C)(C)CCC[C@]4(CO)[C@H]3C[C@@H](O)[C@]21C` (stereo partly specified), the results for the IC50 (in experiment [1]; in the experiment with A2780; with A2058) were above 10000 nM, 8700 nM and above 10000 nM, respectively.

`CC(=O)O[C@H]1C[C@H]2[C@@](C)(CC[C@H]3C(C)(C)CCC[C@@]32CO)[C@@H]2CC=C(C(C)=O)[C@H](C=O)[C@@]12C` came in with an IC50 with A2780 of 650 nM.

Consider `CC(=O)C1=CC[C@H]2[C@]3(C)CC[C@H]4C(C)(C)CCC[C@]4(CO)[C@H]3C[C@@H](O)[C@]2(C)[C@H]1C=O` (relative stereo), for which the IC50 in experiment [1] is 610 nM; in the experiment on A2780, 280 nM; with A2058, above 370 nM.

Consider `CC1(C)CCC[C@@]2(CO)[C@H]1CC[C@]1(C)[C@@H]2C[C@@H](O)[C@]2(C)[C@H]3C=CC(=O)C3=CC[C@@H]12` (relative stereo), for which the IC50 in experiment [1] was 5280 nM; in the experiment on A2780, 4500 nM; with A2058, 4170 nM.

`CC(=O)C1=CC[C@H]2[C@]3(C)CC[C@H]4C(C)(C)CCC[C@]4(CO)[C@H]3C[C@H](O)[C@]2(C)[C@@H]1C=O` (relative stereo): the IC50 stood at 1700 nM in experiment [1], 260 nM in the experiment on A2780 and 1830 nM with A2058.

As to `CC(=O)O[C@H]1C(=O)[C@@]2(C)[C@H]([C@H](OC(=O)c3ccccc3)[C@]3(O)C[C@H](OC(=O)[C@H](O)[C@@H](NC(=O)c4ccccc4)c4ccccc4)C(C)=C1C3(C)C)[C@]1(OC(C)=O)CO[C@@H]1C[C@@H]2O` [PACLITAXEL], the IC50 in experiment [1] was 8.1 nM; in the experiment on A2780, 12 nM; in the experiment on A2058 it was 4.7 nM.
